Data on two compounds can be found in article PMC3056842 (Malaria Journal, 2011).

The test system of data set [1] is Plasmodium falciparum. The conditions noted are these: sigmoid Emax pharmacodynamic model of PCT; cited from earlier work.
A short description of the next data set: clinical. The conditions noted are these: for CL/F: DHA CL/F; for fraction unbound: DHA FF (free fraction); for Tmax: DHA Tmax; for half-life: DHA T½; for Vd/F: DHA Vd/F. The procedure: The four tablets were given orally with 240 mL water under medical supervision. A catheter was inserted into a forearm vein for pharmacokinetic sample collection and flushed after each blood draw with saline solution. […] Blood for malaria smears were taken by finger prick at pre-dose and at 12, 24, 30, 36, 42 and 48 hours post-dose. Malaria smears were also performed on days 7, 14 and 28.
The persistence of malaria infection and adverse events were tracked for 28 days after SP administration. Babies born from the pregnant women cohort were followed until one year of age and development assessed.
The reconstituted extracts were chromatographed isocratically and the compounds detected and quantified by mass spectroscopy.
Concentrations below the lower limit of quantification were assigned a value of zero.
The ratio of the AUC during pregnancy to the AUC at postpartum (after log transformation) was considered a measure of the impact of pregnancy on systemic exposure. […] The "no effect" interval was selected based on the dose-ranging study by Angus and coworkers. […] Statistical analyses were performed using SAS/STAT software, version 9.2 (SAS Institute, Inc., Cary, NC, 2008). […] Spearman correlations were used to look for associations among the pregnant and control population. All p-values were 2-sided.

Details of data set [2]: species or system human. Particulars: in vivo. The procedure: To determine if women met the eligibility criteria, a complete medical history and physical examination was performed by a study physician; sociodemographic data was collected by a study nurse. Haematocrit was measured using a microhaematocrit centrifuge (Hawksley Haematospin 1400, Hawksley & Sons, Ltd, UK). Thick and thin blood films were stained with Giemsa and then read to determine parasite species and the density of P. falciparum asexual stages. […] Human Immunodeficiency Virus (HIV) serology was determined using the Determine 1/2 HIV Test Kit (Inverness Medical Professional Diagnostics, Princeton, NJ). Liver function was assessed by measuring aspartate aminotransferase (AST) and alanine aminotransferase (ALT) in plasmaPiccolo Portable Chemistry Analyser, Abaxis, USA). Alpha-1-Acid glycoprotein was determined in serum samples using radial immunodiffusion (Kent Laboratories, Bellingham, WA, USA).

The subject of data set [3] is Plasmodium falciparum. Nature of the data set: Pharmacodynamics of AS: parasitaemia on malaria smears after dosing. The class given is in vivo. The conditions noted are these: for Parasitaemic - n (%) / Parasite density (where > 0): 12 hours after 200 mg oral AS. The procedure:
To determine if women met the eligibility criteria, a complete medical history and physical examination was performed by a study physician; sociodemographic data was collected by a study nurse. Haematocrit was measured using a microhaematocrit centrifuge (Hawksley Haematospin 1400, Hawksley & Sons, Ltd, UK). Thick and thin blood films were stained with Giemsa and then read to determine parasite species and the density of P. falciparum asexual stages. Parasite density, based on examination of at least 200 high-power microscope fields, was calculated as (# trophozoites/#white blood cells)*6000. Human Immunodeficiency Virus (HIV) serology was determined using the Determine 1/2 HIV Test Kit (Inverness Medical Professional Diagnostics, Princeton, NJ). Liver function was assessed by measuring aspartate aminotransferase (AST) and alanine aminotransferase (ALT) in plasmaPiccolo Portable Chemistry Analyser, Abaxis, USA). Alpha-1-Acid glycoprotein was determined in serum samples using radial immunodiffusion (Kent Laboratories, Bellingham, WA, USA). […]

The conditions of data set [4]: artesunate 4 mg/kg with Malarone, final day of three day course; second and third trimester pregnant women, Thailand; 90% range 0.9-60.7; cited from earlier work.
The mark [5] stands for this setting: female, human, plasma, po, 200 mg, 200 mg oral AS, ante-partum pregnant cases, median [range].
Setting [6] is: female, human, plasma, po, 200 mg, 200 mg oral AS, non-pregnant controls, median [range].
Setting [7] is: female, human, plasma, po, 200 mg, 200 mg oral AS, post-partum (3 months), median [range].

Where “and” joins values, the source holds several entries; their conditions need not be identical. Equal entries are not always repeated. Entries after “also recorded” stand apart in the source; their conditions may differ.

A word on the AUC: it is the area under the concentration-time curve, a measure of exposure. For `C[C@H]1[C@H](OC(=O)CCC(=O)O)O[C@@H]2O[C@@]3(C)CC[C@H]4[C@H](C)CC[C@@H]1[C@@]24OO3` [AS, artesunate], the Hill slope coefficient in the data set with Plasmodium falciparum [1] is 10. In “clinical” (female, human, in vivo, po, 200 mg), the “range of AS AUCs among the subjects” value is reported as “more than 17 fold”. The compound further came in with an AUC in the data set “clinical” (female, human, in vivo, po, 200 mg, median AS AUC) of 205 ng·h/mL. In addition, the “infant development at one year of age” value in data set [2] was “normal physical and neurological development”. Besides, the pregnancy outcome in data set [2] is given as “singleton live births”. In addition, in the data set with Plasmodium falciparum [3] (200 mg oral AS, 13 of the 14 non-pregnant controls), the “aparasitaemic at 12 hours among those parasitaemic at t = 0” value stood at 93%. Also, the “aparasitaemic at 12 hrs among those parasitaemic at t = 0” value with Plasmodium falciparum [3] (200 mg oral AS, 21 of the 24 pregnant women) worked out at 87.5%. In addition, the “Parasitaemic - n (%)” value with Plasmodium falciparum [3] (all pregnant cases, N 26) is listed as 3 (11.5); with Plasmodium falciparum [3] (non-pregnant controls, N 25), 1 (4.0); with Plasmodium falciparum [3] (pregnant cases Window 1 (22-26 wks GA), N 13), 3 (23.1); in the data set with Plasmodium falciparum [3] (pregnant cases Window 2 (32-36 wks GA), N 13) it was 0 (0). The “Parasite density (where > 0)” value in the data set with Plasmodium falciparum [3] (all pregnant cases, median (interquartile range)) is given as 87 (44 - 286) parasites/μL; in the data set with Plasmodium falciparum [3] (non-pregnant controls, median), 24 -- parasites/μL; in the data set on Plasmodium falciparum [3] (pregnant cases Window 1, median (interquartile range)), 87 (44 - 286) parasites/μL. Moreover, the “efficacy (in words)” value with Plasmodium falciparum [3] (single 200 mg oral dose of AS, second and third trimester pregnant women) is “effective; also recorded: rapid clearance of parasitaemia”.

Usually CL/F stands for the apparent clearance, not corrected for the fraction that reaches the circulation. One may read the Cmax as the highest concentration seen after dosing. Broadly, the fraction unbound is free concentration divided by total concentration. Broadly, the Tmax is the time from dosing to the highest level. Broadly, the half-life is the time needed for the level to fall by half in the phase considered. Low values mean fast loss, high ones slow loss. Broadly, the Vd/F is the volume of distribution divided by bioavailability. Turning to `C[C@H]1[C@@H](O)O[C@@H]2O[C@@]3(C)CC[C@H]4[C@H](C)CC[C@@H]1[C@@]24OO3` [DHA, dihydroartemisinin], the “median DHA Vd/F” value in data set [4] is recorded as 3.4 L/kg. Also, the “median free AUC for DHA in pregnant women as percentage of non-pregnant controls” value in “clinical” (200 mg oral AS) amounted to 79%. Further, the “median total AUC for DHA in pregnant women as percentage of non-pregnant controls” value in the data set “clinical” (200 mg oral AS) came out at 62%. For the same compound, in the data set “clinical” (200 mg oral AS, ante-partum pregnant cases, median [range]), the “DHA AUCall” value was 1730.5 [1034.7 - 4085.5] ng*h/mL. In “clinical” (200 mg oral AS, non-pregnant controls, median [range]), the “DHA T½” value was 1.41 [0.86 - 6.55] h. The AUC in the data set “clinical” (female, human, plasma, po, 200 mg, DHA AUCall, 200 mg oral AS, ante-partum pregnant cases, median [range]) came to 1730 ng·h/mL; in the data set “clinical” (female, human, plasma, po, 200 mg, DHA AUCall, 200 mg oral AS, non-pregnant controls, median [range]), 2790 ng·h/mL; in “clinical” (female, human, plasma, po, 200 mg, DHA AUCall, 200 mg oral AS, post-partum (3 months), median [range]) it was 2120 ng·h/mL. Besides, the CL/F was 23.2 mL/min/kg in “clinical” (setting [5]), 17.8 mL/min/kg in the data set “clinical” (setting [6]) and 21 mL/min/kg in the data set “clinical” (setting [7]). Further, the Cmax amounted to 905 ng/mL in “clinical” (female, human, plasma, po, 200 mg, DHA Cmax, 200 mg oral AS, ante-partum pregnant cases, median [range]); 1280 ng/mL in the data set “clinical” (female, human, plasma, po, 200 mg, DHA Cmax, 200 mg oral AS, non-pregnant controls, median [range]); 980 ng/mL in “clinical” (female, human, plasma, po, 200 mg, DHA Cmax, 200 mg oral AS, post-partum (3 months), median [range]); 1280 ng/mL in the data set “clinical” (female, human, plasma, po, 200 mg, median DHA Cmax, 200 mg oral AS, non-pregnant control group); 905 ng/mL in the data set “clinical” (female, human, plasma, po, 200 mg, median DHA Cmax, 200 mg oral AS, pregnant group). Also, the fraction unbound in “clinical” (setting [5]) was determined as 0.21; in the data set “clinical” (setting [6]), 0.18; in “clinical” (setting [7]), 0.19. Further, the Tmax in “clinical” (setting [5]) was found to be 1.5 h; in “clinical” (setting [6]), 1.52 h; in the data set “clinical” (setting [7]), 1.5 h. Besides, the half-life in the data set “clinical” (setting [5]) was 1.28 h; in “clinical” (setting [7]) it was 1.63 h. Moreover, the Vd/F is 157 L and 2.84 L/kg in the data set “clinical” (setting [5]); 128 L and 2.45 L/kg in the data set “clinical” (setting [6]); 158 L and 3 L/kg in “clinical” (setting [7]).
